The text below walks through data of patent US8372982B2, “Fungicidal N-(Phenylcycloalkyl)carboxamide, N-(Benzylcycloalkyl)carboxamide and thiocarboxamide derivatives” (Bayer Cropscience AG, priority 2009, dated 2013).

The assay concerns Leptosphaeria nodosum. The experiment in a line: In vivo comparative test on Leptosphaeria nodoruin (wheat)/preventive. As to conditions: dose of 500 ppm, preventive, evaluated 10 days after the inoculation. The protocol:
Solvent: 49 parts by weight of N,N-dimethylacetamide Emulsifier: 1 part by weight of alkylaryl polyglycol ether To produce a suitable preparation of active compound, 1 part by weight of active compound or the compound combination is mixed with the stated amounts of solvent and emulsifier, and the concentrate is diluted with water to the desired concentration. To test for protective activity, young plants are sprayed with a preparation of active compound or active compound combination at the stated rate of application. After the spray coating has dried on, the plants are sprayed with a spore suspension of Leptosphaeria nodosum. The plants remain for 48 hours in an incubation cabinet at 20° C. and a relative atmospheric humidity of 100%. The plants are placed in a greenhouse at a temperature of approximately 15° C. and a relative atmospheric humidity of approximately 80%. The test is evaluated 10 days after the inoculation. 0% means an efficacy which corresponds to that of the control, while an efficacy of 100% means that no disease is observed. […]

As for `Cn1cc(C(=O)N[C@@H]2C[C@@H]2c2ccc(Cl)cc2)c(C(F)F)n1` (relative stereo) [Example 1.001, cis-N-[2-(4-chlorophenyl)cyclopropyl]-3-(difluoro-methyl)-1-methyl-1H-pyrazole-4-carboxamide], the disease control result is recorded as “less than 10%”.
